Article PMC6600263, “Neuroprotective Effects of Red Ginseng Saponins in Scopolamine-Treated Rats and Activity Screening Based on Pharmacokinetics” (Molecules, 2019)
Read-outs that look alike come from different tables or passages of the source.

Experiments:
[1] = pharmacokinetics of 16 ginsenosides in rat plasma after oral administration of RGS; assay type: in vivo
Procedure: The SD rats were randomly allocated into two groups, i.e., normal group and SA-treated group.
Blood samples were collected from the postocular vein at 0.083, 0.25, 0.5, 1, 2, 3, 4, 6, 8, 12 and 24 h after SA injection. Blood sample immediately was centrifuged at 18,000 rpm for 10 min. Plasma was withdrawn (0.15 mL) and diluted with 0.3 mL of acetonitrile and 20 µL of the IS (6 µg/mL). After 30 min, the mixture was clarified by centrifugation at 18,000 rpm for 10 min at 4 °C. The supernatant was dried under a stream of N2, and the residue was dissolved in 0.1 mL of methanol and stored at −20 °C for further analysis.
The UPLC-MS/MS system (Waters Xeve TQ, Waters, Cork, Ireland) with a column C18 (ACQUITY, 1.7 μm, 2.1 × 50 mm, Waters, Cork, Ireland) were adopted at 35 °C. Water (A) and acetonitrile (B) were used as mobile phases at a flow rate of 0.4 mL/min. The treatment of elution was performed according to following pattern: 10% B for 0–5.0 min; 10→15% B for 5.0–8.0 min; 15→25% B for 8.0–12.0 min; 25→40% for 12.0–20.0 min; 40→50% B for 20.0–25.0 min; 50→65% B for 25.0–30.0 min. With regard to mass detection, the negative mode of electrospray ionization source was adopted. The optimized parameters of multiple reactions monitoring (MRM) system including collision energy, Q1 Pre Bias, Q3 Pre Bias, collision energy and MRM transition of the 16 ginsenosides are shown in Table 1.
Based on a non-compartmental method, WinNonlin software (Phoenix, version 6.1) was employed to calculate the pharmacokinetic parameters. The statistical difference between groups was analyzed by One-Way ANOVA analysis using SPSS Version 17.0. (SPSS Inc., Chicago, IL, USA). The difference between groups was regarded significant when p < 0.05. We first normalized the pharmacokinetic data and then visualized them based on principal component analysis (PCA).

[2] = test system: scopolamine-induced learning ability impairment; design: method as in PMID 24503167; conditions: rats; cited from earlier work
[3] = test system: recognition deficits induced by cyproheptadine; design: method as in PMID 23717153; conditions: rats; cited from earlier work
[4] = SD, rat, in vivo, po, 100 mg/kg

Structure (SMILES)	Cmax ([1]; SD, rat, plasma, po, 100 mg/kg, model (scopolamine 1 mg/kg i.p.-treated) rats, oral RGS single dose 100 mg/kg, plasma, mean ± S.D., n = 5, read-out: C Max)	MRT ([1]; SD, rat, plasma, po, 100 mg/kg, model (scopolamine 1 mg/kg i.p.-treated) rats, oral RGS single dose 100 mg/kg, plasma, mean ± S.D., n = 5, read-out: MRT)	half-life ([1]; SD, rat, plasma, po, 100 mg/kg, model (scopolamine 1 mg/kg i.p.-treated) rats, oral RGS single dose 100 mg/kg, plasma, mean ± S.D., n = 5, read-out: T1/2 (converted))	Tmax ([1]; SD, rat, plasma, po, 100 mg/kg, model (scopolamine 1 mg/kg i.p.-treated) rats, oral RGS single dose 100 mg/kg, plasma, mean ± S.D., n = 5, read-out: T Max)	Cmax ([1]; SD, rat, plasma, po, 100 mg/kg, normal rats, oral RGS single dose 100 mg/kg, plasma, mean ± S.D., n = 5, read-out: C Max)	MRT ([1]; SD, rat, plasma, po, 100 mg/kg, normal rats, oral RGS single dose 100 mg/kg, plasma, mean ± S.D., n = 5, read-out: MRT)	half-life ([1]; SD, rat, plasma, po, 100 mg/kg, normal rats, oral RGS single dose 100 mg/kg, plasma, mean ± S.D., n = 5, read-out: T1/2 (converted))	Tmax ([1]; SD, rat, plasma, po, 100 mg/kg, normal rats, oral RGS single dose 100 mg/kg, plasma, mean ± S.D., n = 5, read-out: T Max)	AUC 0-t ([1]; model (scopolamine 1 mg/kg i.p.-treated) rats, oral RGS single dose 100 mg/kg, plasma, mean ± S.D., n = 5)	AUC 0-t ([1]; normal rats, oral RGS single dose 100 mg/kg, plasma, mean ± S.D., n = 5)	effect on scopolamine-induced learning ability impairment [2]	C Max [1, 4]	MRT [1, 4]	T1/2 [1, 4]	Cmax ([1]; SD, rat, in vivo, po, 100 mg/kg, C Max)	MRT ([1]; SD, rat, in vivo, po, 100 mg/kg, MRT)	half-life ([1]; SD, rat, in vivo, po, 100 mg/kg, T1/2)	Tmax ([1]; SD, rat, in vivo, po, 100 mg/kg, T Max)	effect on recognition deficits induced by cyproheptadine [3]
CC(C)=CCCC(C)(OC1OC(CO)C(O)C(O)C1O)C1CCC2(C)C1C(O)CC1C3(C)CCC(O)C(C)(C)C3C(OC3OC(CO)C(O)C(O)C3O)CC12C (stereo not shown) [Rg1]	32.2 ± 2.1 ng/g	16.5 ± 3.2 h	10.2 ± 1.2 h	4 ± 0.9 h	20.5 ± 2.5 ng/g	15.6 ± 2.1 h	9.6 ± 1.5 h	4 ± 1.2 h	664.5 ± 15.2 ng·h/g	568.9 ± 10.3 ng·h/g	improves	–	–	–	–	–	–	–	–
CC(C)=CCC[C@](C)(O)[C@H]1CC[C@]2(C)[C@@H]1[C@H](O)C[C@@H]1[C@@]3(C)CC[C@H](O)C(C)(C)[C@@H]3[C@@H](O[C@@H]3O[C@H](CO)[C@@H](O)[C@H](O)[C@H]3O[C@@H]3O[C@@H](C)[C@H](O)[C@@H](O)[C@H]3O)C[C@]12C [Rg2, Ginsenoside Rg2]	–	–	–	–	–	–	–	–	–	–	–	26.3 ± 4.8 ng/g	26.5 ± 3.6 h	18.9 ± 1.6 h	15.3 ± 5.6 ng/g	22.3 ± 1.4 h	19.8 ± 2.5 h	1.5 ± 0.8 h	improves
